# Assay results: ChEMBL document CHEMBL3508140 (2016)
# Assays:
# [1] = (§1) Excretory balance of radioactivity in urine following intravenous 14C-epirubicin at 0.45 ug.eq.Kg-1 dose in rat; type: ADME, organism-based, SD; design: dose 0.45 ug.eq.Kg-1, dosed compound id 2.46808e+06, dosed compound name 14C-Epirubicin, route intravenous, sampling time 0-24 h, study doses 0.45 ug.eq.Kg-1; conditions: in vivo
# [2] = as §1; type: ADME, organism-based, SD; design: dose 0.45 ug.eq.Kg-1, dosed compound id 2.46808e+06, dosed compound name 14C-Epirubicin, route intravenous, sampling time 0-8 h, study doses 0.45 ug.eq.Kg-1; conditions: in vivo
# [3] = (§2) Excretory balance of radioactivity in faeces following intravenous 14C-epirubicin at 1 mg.Kg-1 dose in rat; type: ADME, organism-based, SD, Feces; design: dose 1 mg.Kg-1, dosed compound id 2.46808e+06, dosed compound name 14C-Epirubicin, route intravenous, sampling time 0-48 h; conditions: in vivo
# [4] = as §1; type: ADME, organism-based, SD; design: dose 0.45 ug.eq.Kg-1, dosed compound id 2.46808e+06, dosed compound name 14C-Epirubicin, route intravenous, sampling time 0-6 h, study doses 0.45 ug.eq.Kg-1; conditions: in vivo
# [5] = as §2; type: ADME, organism-based, SD, Feces; design: dose 1 mg.Kg-1, dosed compound id 2.46808e+06, dosed compound name 14C-Epirubicin, route intravenous, sampling time 0-1 h; conditions: in vivo
# [6] = (§3) Excretory balance of radioactivity in faeces following intravenous 14C-epirubicin at 0.45 ug.eq.Kg-1 dose in rat; type: ADME, organism-based, SD, Feces; design: dose 0.45 ug.eq.Kg-1, dosed compound id 2.46808e+06, dosed compound name 14C-Epirubicin, route intravenous, sampling time 0-1 h, study doses 0.45 ug.eq.Kg-1; conditions: in vivo
# [7] = (§4) Excretory balance of radioactivity in bile following intravenous 14C-epirubicin at 1 mg.Kg-1 dose in rat; type: ADME, organism-based, SD; design: dose 1 mg.Kg-1, dosed compound id 2.46808e+06, dosed compound name 14C-Epirubicin, route intravenous, sampling time 0-48 h; conditions: in vivo
# [8] = as §3; type: ADME, organism-based, SD, Feces; design: dose 0.45 ug.eq.Kg-1, dosed compound id 2.46808e+06, dosed compound name 14C-Epirubicin, route intravenous, sampling time 0-8 h, study doses 0.45 ug.eq.Kg-1; conditions: in vivo
# [9] = (§5) Excretory balance of radioactivity in bile following intravenous 14C-epirubicin at 0.45 ug.eq.Kg-1 dose in rat; type: ADME, organism-based, SD; design: dose 0.45 ug.eq.Kg-1, dosed compound id 2.46808e+06, dosed compound name 14C-Epirubicin, route intravenous, sampling time 0-1 h, study doses 0.45 ug.eq.Kg-1; conditions: in vivo
# [10] = as §4; type: ADME, organism-based, SD; design: dose 1 mg.Kg-1, dosed compound id 2.46808e+06, dosed compound name 14C-Epirubicin, route intravenous, sampling time 0-2 h; conditions: in vivo
# [11] = Excretion of radioactivity in urine following single intravenous 14C-epirubicin at 75 mg.m-2 dose in cancer patients; type: ADME, organism-based; design: dose 75 mg.m-2, dosed compound id 2.46808e+06, dosed compound name 14C-Epirubicin, regimen Single, sampling time 10 Day; conditions: human, in vivo, at 75 mg/m2
# [12] = as §3; type: ADME, organism-based, SD, Feces; design: dose 0.45 ug.eq.Kg-1, dosed compound id 2.46808e+06, dosed compound name 14C-Epirubicin, route intravenous, sampling time 0-4 h, study doses 0.45 ug.eq.Kg-1; conditions: in vivo
# [13] = as §4; type: ADME, organism-based, SD; design: dose 1 mg.Kg-1, dosed compound id 2.46808e+06, dosed compound name 14C-Epirubicin, route intravenous, sampling time 0-6 h; conditions: in vivo
# [14] = as §5; type: ADME, organism-based, SD; design: dose 0.45 ug.eq.Kg-1, dosed compound id 2.46808e+06, dosed compound name 14C-Epirubicin, route intravenous, sampling time 0-2 h, study doses 0.45 ug.eq.Kg-1; conditions: in vivo
# [15] = as §2; type: ADME, organism-based, SD, Feces; design: dose 1 mg.Kg-1, dosed compound id 2.46808e+06, dosed compound name 14C-Epirubicin, route intravenous, sampling time 0-4 h; conditions: in vivo
# [16] = (§6) Excretory balance of radioactivity in urine following intravenous 14C-epirubicin at 1 mg.Kg-1 dose in rat; type: ADME, organism-based, SD; design: dose 1 mg.Kg-1, dosed compound id 2.46808e+06, dosed compound name 14C-Epirubicin, route intravenous, sampling time 0-48 h; conditions: in vivo
# [17] = as §6; type: ADME, organism-based, SD; design: dose 1 mg.Kg-1, dosed compound id 2.46808e+06, dosed compound name 14C-Epirubicin, route intravenous, sampling time 0-1 h; conditions: in vivo
# [18] = as §5; type: ADME, organism-based, SD; design: dose 0.45 ug.eq.Kg-1, dosed compound id 2.46808e+06, dosed compound name 14C-Epirubicin, route intravenous, sampling time 0-8 h, study doses 0.45 ug.eq.Kg-1; conditions: in vivo
# [19] = as §1; type: ADME, organism-based, SD; design: dose 0.45 ug.eq.Kg-1, dosed compound id 2.46808e+06, dosed compound name 14C-Epirubicin, route intravenous, sampling time 0-4 h, study doses 0.45 ug.eq.Kg-1; conditions: in vivo
# [20] = as §5; type: ADME, organism-based, SD; design: dose 0.45 ug.eq.Kg-1, dosed compound id 2.46808e+06, dosed compound name 14C-Epirubicin, route intravenous, sampling time 0-6 h, study doses 0.45 ug.eq.Kg-1; conditions: in vivo
# [21] = as §6; type: ADME, organism-based, SD; design: dose 1 mg.Kg-1, dosed compound id 2.46808e+06, dosed compound name 14C-Epirubicin, route intravenous, sampling time 0-2 h; conditions: in vivo
# [22] = as §5; type: ADME, organism-based, SD; design: dose 0.45 ug.eq.Kg-1, dosed compound id 2.46808e+06, dosed compound name 14C-Epirubicin, route intravenous, sampling time 0-48 h, study doses 0.45 ug.eq.Kg-1; conditions: in vivo
# [23] = Decrease in leukocytes observed following reference intravenous doxorubicin at 1 mg.Kg-1 per week in rat; type: toxicity, organism-based, SD, Blood; design: dose 1 mg.Kg-1, dosed compound id 2.46809e+06, dosed compound name Doxorubicin, dose level High, gender Mixed, regimen Once per week, route intravenous, sampling time 36 Week, study doses 0/0.3/0.6/1 mg.Kg-1; conditions: in vivo
# [24] = as §6; type: ADME, organism-based, SD; design: dose 1 mg.Kg-1, dosed compound id 2.46808e+06, dosed compound name 14C-Epirubicin, route intravenous, sampling time 0-4 h; conditions: in vivo
# [25] = as §2; type: ADME, organism-based, SD, Feces; design: dose 1 mg.Kg-1, dosed compound id 2.46808e+06, dosed compound name 14C-Epirubicin, route intravenous, sampling time 0-12 h; conditions: in vivo
# [26] = as §2; type: ADME, organism-based, SD, Feces; design: dose 1 mg.Kg-1, dosed compound id 2.46808e+06, dosed compound name 14C-Epirubicin, route intravenous, sampling time 0-8 h; conditions: in vivo
# [27] = as §4; type: ADME, organism-based, SD; design: dose 1 mg.Kg-1, dosed compound id 2.46808e+06, dosed compound name 14C-Epirubicin, route intravenous, sampling time 0-4 h; conditions: in vivo
# [28] = as §2; type: ADME, organism-based, SD, Feces; design: dose 1 mg.Kg-1, dosed compound id 2.46808e+06, dosed compound name 14C-Epirubicin, route intravenous, sampling time 0-2 h; conditions: in vivo
# [29] = as §3; type: ADME, organism-based, SD, Feces; design: dose 0.45 ug.eq.Kg-1, dosed compound id 2.46808e+06, dosed compound name 14C-Epirubicin, route intravenous, sampling time 0-2 h, study doses 0.45 ug.eq.Kg-1; conditions: in vivo
# [30] = Excretion of radioactivity in faeces following single intravenous 14C-epirubicin at 75 mg.m-2 dose in cancer patients; type: ADME, organism-based, Feces; design: dose 75 mg.m-2, dosed compound id 2.46808e+06, dosed compound name 14C-Epirubicin, regimen Single, sampling time 10 Day; conditions: human, in vivo, at 75 mg/m2
# [31] = as §6; type: ADME, organism-based, SD; design: dose 1 mg.Kg-1, dosed compound id 2.46808e+06, dosed compound name 14C-Epirubicin, route intravenous, sampling time 0-8 h; conditions: in vivo
# [32] = as §6; type: ADME, organism-based, SD; design: dose 1 mg.Kg-1, dosed compound id 2.46808e+06, dosed compound name 14C-Epirubicin, route intravenous, sampling time 0-24 h; conditions: in vivo
# [33] = as §2; type: ADME, organism-based, SD, Feces; design: dose 1 mg.Kg-1, dosed compound id 2.46808e+06, dosed compound name 14C-Epirubicin, route intravenous, sampling time 0-6 h; conditions: in vivo
# [34] = as §1; type: ADME, organism-based, SD; design: dose 0.45 ug.eq.Kg-1, dosed compound id 2.46808e+06, dosed compound name 14C-Epirubicin, route intravenous, sampling time 0-1 h, study doses 0.45 ug.eq.Kg-1; conditions: in vivo
# [35] = as §4; type: ADME, organism-based, SD; design: dose 1 mg.Kg-1, dosed compound id 2.46808e+06, dosed compound name 14C-Epirubicin, route intravenous, sampling time 0-12 h; conditions: in vivo
# [36] = as §6; type: ADME, organism-based, SD; design: dose 1 mg.Kg-1, dosed compound id 2.46808e+06, dosed compound name 14C-Epirubicin, route intravenous, sampling time 0-12 h; conditions: in vivo
# [37] = as §3; type: ADME, organism-based, SD, Feces; design: dose 0.45 ug.eq.Kg-1, dosed compound id 2.46808e+06, dosed compound name 14C-Epirubicin, route intravenous, sampling time 0-48 h, study doses 0.45 ug.eq.Kg-1; conditions: in vivo
# [38] = as §4; type: ADME, organism-based, SD; design: dose 1 mg.Kg-1, dosed compound id 2.46808e+06, dosed compound name 14C-Epirubicin, route intravenous, sampling time 0-1 h; conditions: in vivo
# [39] = as §3; type: ADME, organism-based, SD, Feces; design: dose 0.45 ug.eq.Kg-1, dosed compound id 2.46808e+06, dosed compound name 14C-Epirubicin, route intravenous, sampling time 0-6 h, study doses 0.45 ug.eq.Kg-1; conditions: in vivo
# [40] = as §6; type: ADME, organism-based, SD; design: dose 1 mg.Kg-1, dosed compound id 2.46808e+06, dosed compound name 14C-Epirubicin, route intravenous, sampling time 0-6 h; conditions: in vivo
# [41] = as §5; type: ADME, organism-based, SD; design: dose 0.45 ug.eq.Kg-1, dosed compound id 2.46808e+06, dosed compound name 14C-Epirubicin, route intravenous, sampling time 0-4 h, study doses 0.45 ug.eq.Kg-1; conditions: in vivo
# [42] = as §3; type: ADME, organism-based, SD, Feces; design: dose 0.45 ug.eq.Kg-1, dosed compound id 2.46808e+06, dosed compound name 14C-Epirubicin, route intravenous, sampling time 0-24 h, study doses 0.45 ug.eq.Kg-1; conditions: in vivo
# [43] = as §5; type: ADME, organism-based, SD; design: dose 0.45 ug.eq.Kg-1, dosed compound id 2.46808e+06, dosed compound name 14C-Epirubicin, route intravenous, sampling time 0-24 h, study doses 0.45 ug.eq.Kg-1; conditions: in vivo
# [44] = as §4; type: ADME, organism-based, SD; design: dose 1 mg.Kg-1, dosed compound id 2.46808e+06, dosed compound name 14C-Epirubicin, route intravenous, sampling time 0-8 h; conditions: in vivo
# [45] = as §4; type: ADME, organism-based, SD; design: dose 1 mg.Kg-1, dosed compound id 2.46808e+06, dosed compound name 14C-Epirubicin, route intravenous, sampling time 0-24 h; conditions: in vivo
# [46] = as §1; type: ADME, organism-based, SD; design: dose 0.45 ug.eq.Kg-1, dosed compound id 2.46808e+06, dosed compound name 14C-Epirubicin, route intravenous, sampling time 0-2 h, study doses 0.45 ug.eq.Kg-1; conditions: in vivo
smiles,measurement,setting,value
COc1cccc2c1C(=O)c1c(O)c3c(c(O)c1C2=O)C[C@@](O)(C(=O)CO)C[C@@H]3O[C@H]1C[C@H](N)[C@@H](O)[C@H](C)O1 [EPIRUBICIN],Radiolabel recovery,[1],2.14%
same,Radiolabel recovery,[2],0.54%
same,Radiolabel recovery,[3],4.44%
same,Radiolabel recovery,[4],OUTCOME = Observed
same,Radiolabel recovery,[5],OUTCOME = Observed
same,Radiolabel recovery,[6],OUTCOME = Observed
same,Radiolabel recovery,[7],47.72%
same,Radiolabel recovery,[8],OUTCOME = Not detectable
same,Radiolabel recovery,[9],0.06%
same,Radiolabel recovery,[10],18.13%
same,Radiolabel recovery,[11],16%
same,Radiolabel recovery,[12],OUTCOME = Observed
same,Radiolabel recovery,[13],25.25%
same,Radiolabel recovery,[14],0.27%
same,Radiolabel recovery,[15],OUTCOME = Observed
same,Radiolabel recovery,[16],14.74%
same,Radiolabel recovery,[17],OUTCOME = Observed
same,Radiolabel recovery,[18],7.05%
same,Radiolabel recovery,[19],OUTCOME = Observed
same,Radiolabel recovery,[20],5.17%
same,Radiolabel recovery,[21],OUTCOME = Observed
same,Radiolabel recovery,[22],17.32%
same,WBC_CHANGE,[23],45%
same,Radiolabel recovery,[24],OUTCOME = Observed
same,Radiolabel recovery,[25],1.77%
same,Radiolabel recovery,[26],OUTCOME = Observed
same,Radiolabel recovery,[27],22.93%
same,Radiolabel recovery,[28],OUTCOME = Observed
same,Radiolabel recovery,[29],OUTCOME = Observed
same,Radiolabel recovery,[30],24%
same,Radiolabel recovery,[31],OUTCOME = Observed
same,Radiolabel recovery,[32],12%
same,Radiolabel recovery,[33],1.18%
same,Radiolabel recovery,[34],OUTCOME = Observed
same,Radiolabel recovery,[35],30.19%
same,Radiolabel recovery,[36],8.56%
same,Radiolabel recovery,[37],48.78%
same,Radiolabel recovery,[38],13.22%
same,Radiolabel recovery,[39],OUTCOME = Observed
same,Radiolabel recovery,[40],7.31%
same,Radiolabel recovery,[41],2.01%
same,Radiolabel recovery,[42],26%
same,Radiolabel recovery,[43],14.72%
same,Radiolabel recovery,[44],28.39%
same,Radiolabel recovery,[45],38.44%
same,Radiolabel recovery,[46],OUTCOME = Observed
